Laboratory results published in paper PMC4177882, “Inactivation and Unfolding of Protein Tyrosine Phosphatase from Thermus thermophilus HB27 during Urea and Guanidine Hydrochloride Denaturation” (PLoS ONE, 2014).
Counter-ions that a name gives are not always drawn.

Biological target: T1, protein tyrosine phosphatase (PTPase) from Thermus thermophilus HB27 (Thermus thermophilus, UniProt Q72JF6)
T1 construct: gene TT_C0816; recombinant, expressed in E. coli BL21(DE3), purified to homogeneity; low molecular weight PTPase, CX5R(S/T) P-loop with Cys11; monomer in solution
T1 sequence (Q72JF6 entry or part of it): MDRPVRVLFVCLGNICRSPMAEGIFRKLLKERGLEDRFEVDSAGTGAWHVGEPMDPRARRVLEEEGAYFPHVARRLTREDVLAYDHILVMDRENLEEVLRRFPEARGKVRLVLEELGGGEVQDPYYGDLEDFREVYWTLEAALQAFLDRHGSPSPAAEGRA
Assay: phosphatase activity, absorbance at […] nm
Type: biochemical

Ki: 270 µM
SMILES: N=C(N)N [guanidine hydrochloride]
